Test results: PubChem BioAssay AID1259407 (Chemical Carcinogenesis Research Information System (CCRIS), 2018)
The source made the active and inactive calls. How the calls were made is not given here.

Test system: CCRIS mutagenicity, Ames/micronucleus/aberration tests
Test: CCRIS mutagenicity studies
[1] = Test System: AMES SALMONELLA TYPHIMURIUM, Strain/Indicator: TA97, Metabolic Activation: NONE, Method: PREINCUBATION
[2] = Test System: AMES SALMONELLA TYPHIMURIUM, Strain/Indicator: TA97, Metabolic Activation: RAT, LIVER, S-9, AROCLOR 1254, Method: PREINCUBATION
[3] = Test System: AMES SALMONELLA TYPHIMURIUM, Strain/Indicator: TA98, Metabolic Activation: NONE, Method: PREINCUBATION
[4] = Test System: AMES SALMONELLA TYPHIMURIUM, Strain/Indicator: TA100, Metabolic Activation: NONE, Method: PREINCUBATION
[5] = Test System: AMES SALMONELLA TYPHIMURIUM, Strain/Indicator: TA102, Metabolic Activation: NONE, Method: PREINCUBATION
[6] = Test System: AMES SALMONELLA TYPHIMURIUM, Strain/Indicator: TA102, Metabolic Activation: RAT, LIVER, S-9, AROCLOR 1254, Method: PREINCUBATION
[7] = Test System: AMES SALMONELLA TYPHIMURIUM, Strain/Indicator: TA1535, Metabolic Activation: NONE, Method: PREINCUBATION

Question: For `Nc1nc(=O)n([C@H]2C[C@H](O)[C@@H](CO)O2)cc1I`, which mutagenic call [1] is on record?
Answer: inactive; negative

Question: What about the mutagenic call [2] of the same compound?
Answer: inactive; negative

Question: What about the mutagenic call [3] of the same compound?
Answer: inactive; negative

Question: What about the mutagenic call (Test System: AMES SALMONELLA TYPHIMURIUM, Strain/Indicator: TA98, Metabolic Activation: RAT, LIVER, S-9, AROCLOR 1254, Method: PREINCUBATION) of the same compound?
Answer: inactive; negative

Question: What about the mutagenic call [4] of the same compound?
Answer: inactive; negative

Question: And the mutagenic call (Test System: AMES SALMONELLA TYPHIMURIUM, Strain/Indicator: TA100, Metabolic Activation: RAT, LIVER, S-9, AROCLOR 1254, Method: PREINCUBATION)?
Answer: inactive; negative

Question: And the mutagenic call [5]?
Answer: inactive; negative

Question: What about the mutagenic call [6] of the same compound?
Answer: inactive; negative

Question: And the mutagenic call (Test System: AMES SALMONELLA TYPHIMURIUM, Strain/Indicator: TA104, Metabolic Activation: NONE, Method: PREINCUBATION)?
Answer: inactive; negative

Question: What about the mutagenic call (Test System: AMES SALMONELLA TYPHIMURIUM, Strain/Indicator: TA104, Metabolic Activation: RAT, LIVER, S-9, AROCLOR 1254, Method: PREINCUBATION) of the same compound?
Answer: inactive; negative

Question: What about the mutagenic call [7] of the same compound?
Answer: inactive; negative

Question: And the mutagenic call (Test System: AMES SALMONELLA TYPHIMURIUM, Strain/Indicator: TA1535, Metabolic Activation: RAT, LIVER, S-9, AROCLOR 1254, Method: PREINCUBATION)?
Answer: inactive; negative

Question: And the mutagenic call (Test System: AMES SALMONELLA TYPHIMURIUM, Strain/Indicator: TA1537, Metabolic Activation: NONE, Method: PREINCUBATION)?
Answer: inactive; negative

Question: What about the mutagenic call (Test System: AMES SALMONELLA TYPHIMURIUM, Strain/Indicator: TA1537, Metabolic Activation: RAT, LIVER, S-9, AROCLOR 1254, Method: PREINCUBATION) of the same compound?
Answer: inactive; negative

Question: What about the mutagenic call (Test System: AMES SALMONELLA TYPHIMURIUM, Strain/Indicator: TA1538, Metabolic Activation: NONE, Method: PREINCUBATION) of the same compound?
Answer: inactive; negative

Question: And the mutagenic call (Test System: AMES SALMONELLA TYPHIMURIUM, Strain/Indicator: TA1538, Metabolic Activation: RAT, LIVER, S-9, AROCLOR 1254, Method: PREINCUBATION)?
Answer: inactive; negative

Question: What about the mutagenic call (Test System: CHINESE HAMSTER V-79, Strain/Indicator: V-79/8-AZAGUANINE, Metabolic Activation: NONE) of the same compound?
Answer: inactive; negative

Question: Which results are given for `O=C1NS(=O)(=O)c2ccccc21`?
Answer: mutagenic call (Test System: AMES SALMONELLA TYPHIMURIUM, Strain/Indicator: TA97A, Metabolic Activation: NONE, Method: PREINCUBATION): inactive; negative; mutagenic call (Test System: AMES SALMONELLA TYPHIMURIUM, Strain/Indicator: TA97A, Metabolic Activation: RAT, LIVER, S-9, AROCLOR 1254, Method: PREINCUBATION): inactive; negative; mutagenic call [5]: inactive; negative; mutagenic call [6]: inactive; negative

Question: Which mutagenic call [1] does the source give for `CCCCC/C(C=O)=C/c1ccccc1` here?
Answer: inactive; negative

Question: What about the mutagenic call [2] of the same compound?
Answer: inactive; negative

Question: And the mutagenic call [5]?
Answer: inactive; negative

Question: And the mutagenic call [6]?
Answer: inactive; negative

Question: How did the mutagenic call (Test System: AMES SALMONELLA TYPHIMURIUM, Strain/Indicator: TA100(NR), Metabolic Activation: MOUSE, LIVER, S-13, Method: STANDARD PLATE) turn out when `C=COc1ccc([N+](=O)[O-])cc1` was run?
Answer: active; positive

Question: What about the mutagenic call (Test System: AMES SALMONELLA TYPHIMURIUM, Strain/Indicator: TA100(NR), Metabolic Activation: NONE, Method: PREINCUBATION) of the same compound?
Answer: inactive; negative

Question: What about the mutagenic call (Test System: AMES SALMONELLA TYPHIMURIUM, Strain/Indicator: TA100(NR), Metabolic Activation: NONE, Method: STANDARD PLATE) of the same compound?
Answer: inactive; negative

Question: What about the mutagenic call (Test System: AMES SALMONELLA TYPHIMURIUM, Strain/Indicator: TA100(NR), Metabolic Activation: RAT, LIVER, S-9, PCB, Method: PREINCUBATION) of the same compound?
Answer: active; positive

Question: What about the mutagenic call (Test System: AMES SALMONELLA TYPHIMURIUM, Strain/Indicator: TA100, Metabolic Activation: MOUSE, LIVER, S-13, Method: STANDARD PLATE) of the same compound?
Answer: active; positive

Question: What about the mutagenic call [4] of the same compound?
Answer: active; positive

Question: And the mutagenic call (Test System: AMES SALMONELLA TYPHIMURIUM, Strain/Indicator: TA100, Metabolic Activation: NONE, Method: STANDARD PLATE)?
Answer: active; positive

Question: And the mutagenic call (Test System: AMES SALMONELLA TYPHIMURIUM, Strain/Indicator: TA100, Metabolic Activation: RAT, LIVER, S-9, PCB, Method: PREINCUBATION)?
Answer: active; positive

Question: And the mutagenic call (Test System: AMES SALMONELLA TYPHIMURIUM, Strain/Indicator: TA1535, Metabolic Activation: MOUSE, LIVER, S-13, Method: STANDARD PLATE)?
Answer: active; positive

Question: What about the mutagenic call (Test System: AMES SALMONELLA TYPHIMURIUM, Strain/Indicator: TA1535, Metabolic Activation: NONE, Method: STANDARD PLATE) of the same compound?
Answer: inactive; negative

Question: `C=CC(=O)OCCBr` was tested. Which mutagenic call (Test System: AMES SALMONELLA TYPHIMURIUM, Strain/Indicator: TA97, Metabolic Activation: HAMSTER, LIVER, S-9, AROCLOR 1254 (10%), Method: PREINCUBATION) did it give?
Answer: inactive; negative

Question: And the mutagenic call [1]?
Answer: inactive; negative

Question: What about the mutagenic call (Test System: AMES SALMONELLA TYPHIMURIUM, Strain/Indicator: TA97, Metabolic Activation: RAT, LIVER, S-9, AROCLOR 1254 (10%), Method: PREINCUBATION) of the same compound?
Answer: inactive; negative

Question: What about the mutagenic call (Test System: AMES SALMONELLA TYPHIMURIUM, Strain/Indicator: TA98, Metabolic Activation: HAMSTER, LIVER, S-9, AROCLOR 1254 (10%), Method: PREINCUBATION) of the same compound?
Answer: inactive; negative

Question: What about the mutagenic call [3] of the same compound?
Answer: inactive; negative

Question: And the mutagenic call (Test System: AMES SALMONELLA TYPHIMURIUM, Strain/Indicator: TA98, Metabolic Activation: RAT, LIVER, S-9, AROCLOR 1254 (10%), Method: PREINCUBATION)?
Answer: inactive; negative

Question: And the mutagenic call (Test System: AMES SALMONELLA TYPHIMURIUM, Strain/Indicator: TA100, Metabolic Activation: HAMSTER, LIVER, S-9, AROCLOR 1254 (10%), Method: PREINCUBATION)?
Answer: active; positive

Question: And the mutagenic call [4]?
Answer: inactive; negative

Question: What about the mutagenic call (Test System: AMES SALMONELLA TYPHIMURIUM, Strain/Indicator: TA100, Metabolic Activation: RAT, LIVER, S-9, AROCLOR 1254 (10%), Method: PREINCUBATION) of the same compound?
Answer: active; positive

Question: And the mutagenic call (Test System: AMES SALMONELLA TYPHIMURIUM, Strain/Indicator: TA1535, Metabolic Activation: HAMSTER, LIVER, S-9, AROCLOR 1254 (10%), Method: PREINCUBATION)?
Answer: active; positive

Question: What about the mutagenic call [7] of the same compound?
Answer: active; positive

Question: What about the mutagenic call (Test System: AMES SALMONELLA TYPHIMURIUM, Strain/Indicator: TA1535, Metabolic Activation: RAT, LIVER, S-9, AROCLOR 1254 (10%), Method: PREINCUBATION) of the same compound?
Answer: active; positive

Question: `CC[C@H]1OC(=O)[C@H](C)[C@@H](O[C@H]2C[C@@](C)(OC)[C@@H](O)[C@H](C)O2)[C@H](C)[C@@H](O[C@@H]2O[C@H](C)C[C@H](N(C)C)[C@H]2O)[C@](C)(OC)C[C@@H](C)C(=O)[C@H](C)[C@@H](O)[C@]1(C)O` was tested. Which mutagenic call (End Point: AMES SALMONELLA TYPHIMURIUM, Test System: TA98, Metabolic Activation: NONE, Method: STANDARD PLATE) did it give?
Answer: inactive; negative

Question: What about the mutagenic call (End Point: AMES SALMONELLA TYPHIMURIUM, Test System: TA100, Metabolic Activation: NONE, Method: STANDARD PLATE) of the same compound?
Answer: inactive; negative

Question: `CCNc1cc2oc(=O)cc(C)c2cc1C` was tested. Which mutagenic call (Test System: AMES SALMONELLA TYPHIMURIUM, Strain/Indicator: TA1538, Metabolic Activation: NONE, Method: STANDARD PLATE) did it give?
Answer: inactive; negative

Question: And the mutagenic call (Test System: AMES SALMONELLA TYPHIMURIUM, Strain/Indicator: TA1538, Metabolic Activation: RAT, LIVER, S-9, AROCLOR 1254, Method: STANDARD PLATE)?
Answer: inactive; negative
